Assay results taken from patent EP4782437A1, “HETEROARYL COMPOUND, AND PREPARATION METHOD THEREFOR AND USE THEREOF IN MEDICINE” (Jiangsu Hengrui Pharmaceuticals Co., Ltd., priority 2023, dated 2025).

Key:
hERG potassium channels [1] = target: T1, hERG potassium channels (Homo sapiens, UniProt Q12809); experiment: hERG channel inhibition, automated patch-clamp in HEK293-hERG stable transfected cell line; details: read-out: IC50 values of blocking effects on hERG potassium currents, whole-cell patch-clamp, tail currents
[2] = target: T2, BTK recombinant human protein (Homo sapiens, UniProt Q06187); experiment: Inhibitory activity against BTK (HTRF KinEASE-TK kit); type: biochemical; details: 2 nM BTK, 10 µM ATP, 0.5 hours preincubation at 25°C; read-out: IC50 values of inhibitory activity against BTK
T2 construct: purchased Thermo PV3363
Protocol: Test example 1: Inhibitory activity of compounds of the present disclosure against BTK • I. Experimental materials and instruments • 1. BTK recombinant human protein (Thermo, PV3363) • 2. HTRF KinEASE-TK kit (Cisbio, 62TK0PEC) • 3. 1 M MgCl2 (Thermo, AM9530G) • 4. 1 M MnCl2 (Sigma, M1787-100ML) • 5. Adenosine 5'-triphosphate (ATP) (New England Biolabs, P0756L) • 6. DTT 2M (Sangon Biotech, B645939) • 7. Ultrapure water (Invitrogen, 10977-015) • 8. OptiPlate-384, white opaque 384-well microplate (PerkinElmer, 6007290) • 9. 96-well round-bottom plate (Corning, 3788) • 10. Biochemical incubator (Shanghai Boxun Medical & Biological Instruments Co., Ltd., BSP-100) • 11. 15-mL centrifuge tube (Corning) • 12. Benchtop high-speed centrifuge (Changsha Yingtai Instrument Co., Ltd., TD4N) • 13. Multifunctional microplate reader (PerkinElmer, EnVision) • 14. Bravo liquid handling platform (Agilent Technologies, SGC120TH34702) • II. Experimental procedure
The HTRF KinEASE-TK kit is designed to detect changes in BTK enzyme activity based on two technologies, i.e., fluorescence resonance energy transfer and time-resolved fluorescence. The kit is operated in two stages: 1) enzyme reaction stage: the enzyme reaction is initiated by adding ATP, where the enzyme phosphorylates the substrate, and the compounds are then added to competitively bind to BTK against ATP, thereby inhibiting substrate phosphorylation; and 2) detection stage: after the enzyme reaction is complete, a detection reagent is added to terminate the reaction. Different groups on the phosphorylated substrate bind to the energy donor and energy acceptor, respectively, bringing the two into close proximity. During the instrumental readout, the energy donor is excited by an external light source, which enables resonance energy transfer to the proximal energy acceptor. The acceptor, in turn, becomes excited and emits light at a specific wavelength. Thus, changes in enzyme activity can be detected by measuring the signal values, and the inhibition rate of the compounds against the target enzyme can be calculated, thereby evaluating the inhibitory effect of the compounds on BTK enzyme activity.
Preparation of enzyme reaction buffer: 5× Kinase Buffer was diluted 5-fold with ultrapure water, and then the stock solutions of MgCl2, MnCl2 and DTT were added. The final composition of the buffer was as follows: 1× Kinase Buffer, 10 mM MgCl2, 1 mM MnCl2, and 1 mM DTT.
(§1) Preparation of 5 × BTK working solution: The BTK (5.17 µM) stock solution was removed from -20°C storage. Given that the BTK concentration in the enzyme reaction system was 2 nM and the concentration of the 5× working solution was 10 nM, the BTK stock solution was diluted 517-fold with the enzyme reaction buffer according to the volume required for the experiment. The diluted solution was then added to the 384-well plate at 2 µL per well. The plate was placed in a plate spinner and centrifuged at 2000 rpm for 1 minute to bring the liquid to the bottom of the wells.
as §1, with “[…]. Given” for “Preparation of 5 × BTK working solution: The BTK (5.17 µM) stock solution was removed from -20°C storage. Given”, “the SEB” for “the BTK”, “was 50” for “was 2”, “was 250” for “was 10”, “diluted 10-fold” for “diluted 517-fold”
The test compounds dissolved in 100% DMSO at 20 mM were diluted with 100% DMSO to a concentration of 200 µM, which represents the 200× concentration of the highest compound concentration point in the reaction system. The compounds at this concentration were then subjected to 10-point 3-fold serial dilution with 100% DMSO. The positive control wells and negative control wells were set with 100% DMSO. […]

[3] = tested on: B cell activation in human whole blood; experiment: Inhibition of B cell activation in human whole blood (CD69 expression, flow cytometry); type: cell-based; details: anti-human IgD 30 µg/ml + IL-4 5 ng/ml, 18 hours, CD69-positive CD19-positive B cells, read-out: IC50 values of inhibitory activity against B cell activation in human whole blood
From the text: Test example 2: Inhibitory activity of compounds of the present disclosure against B cell activation in human whole blood • I. Experimental materials and instruments • 1. Human whole blood (internal recruitment) • 2. Goat F(ab')2 anti-human IgD-UNLB (SouthernBiotech, 2032-01) • 3. DPBS (1x) (Gibco, 14190-144) • 4. Recombinant human IL-4 (Peprotech, 200-04) • 5. Brilliant Violet 421™ anti-human CD19 antibody (Biolegend, 302234) • 6. APC anti-human CD69 antibody (Biolegend, 310910) • 7. APC mouse IgG1, κ isotype control antibody (Biolegend, 400120) • 8. eBioscience™ 10X RBC lysis buffer (multi-species) (Thermo, 004300-54) • 9. NEST 96-well deep-well plate (Wuxi NEST Biotechnology Co., Ltd., 503501) • 10. 96-well round-bottom plate (Corning, 3788) • 11. 96-well flat-bottom plate (Corning, 3599) • 12. Attune™ NxT acoustic focusing cytometer (ThermoFisher Scientific, 4.2.0) • 13. Cell incubator (Thermo, Forma steri-cycle i160) • II. Experimental procedure
B cells express the B cell receptor (BCR) complex on their surface. When B cells in human whole blood are induced to activate, they can trigger the downstream signalling pathways of the receptor and express the activation marker CD69. The expression of CD69 in activated B cells was detected by flow cytometry, and the IC50 of the compounds were calculated to evaluate the effects of the compounds on BCR activation.
The test compounds dissolved in 100% DMSO at 20 mM were diluted with 100% DMSO to a concentration of 1 mM, which represents the 200× concentration of the highest compound concentration point in the reaction system. The compounds at this concentration were then subjected to 8-point 4-fold serial dilution with 100% DMSO. The positive control wells were set with 100% DMSO, whereas the negative control wells were set with Remiburtinib at a final concentration of 5 µM. The serially diluted compounds and 100% DMSO were further diluted 10-fold in PBS to achieve the 20× concentration, followed by thorough mixing.
After thorough mixing, the whole blood sample was transferred to a loading reservoir and then dispensed into a 96-well flat-bottom plate at 80 µl per well. The compound dilution was dispensed at 5 µl per well. The 11th column of each row was designated as the negative control well, with 5 µl of 100 µM positive control drug added to each well. After thorough mixing for 5 min, the plate was incubated in a 37°C incubator for 30 min. Human IgD antibody was diluted 1.67-fold with PBS to a concentration of 300 µg/mL, and 10 µl of the diluted solution was added to each well of the culture plate (final concentration: 30 µg/ml). Human IL-4 (stock solution at 50 µg/ml) was diluted 500-fold with PBS to a concentration of 100 ng/mL, and 5 µl of the diluted solution was added to each well of the culture plate (final concentration: 5 ng/ml). After thorough mixing for 5 min, the plate was cultured in a 37°C incubator with 5% CO2 for 18 hours.
Flow cytometry detection: CD69-APC, CD19-BV421 and CD4-APC antibodies, and the isotype control antibodies for CD69-APC were removed from 4°C storage. Each antibody was added at 1 µl per well. After thorough mixing for 5 min, the plate was incubated for 30 min at 4°C (refrigerator) in the dark for staining. The 10X RBC lysis buffer was diluted in water to prepare 1X RBC lysis buffer. Aliquots of 1 ml of the lysis buffer were dispensed into each well of a 96-well deep-well plate in advance. The stained samples were transferred into the deep-well plate containing the lysis buffer for erythrocyte lysis. After completing the transfer of an entire plate, the plate was incubated in the dark for 15-20 min. Upon completion of lysis, the plate was centrifuged at 2000 rpm for 4 min. Each well was washed with 1 ml of PBS. Subsequently, the cells were resuspended in 200 µl of PBS, transferred to a 96-well plate, and washed twice more using the same procedure. The samples were resuspended in 200 µl of PBS per well and then subjected to flow cytometry detection. […]

hERG potassium channels [4] = target: T1, hERG potassium channels; experiment: cell-based

T1 sequence (Q12809 whole entry): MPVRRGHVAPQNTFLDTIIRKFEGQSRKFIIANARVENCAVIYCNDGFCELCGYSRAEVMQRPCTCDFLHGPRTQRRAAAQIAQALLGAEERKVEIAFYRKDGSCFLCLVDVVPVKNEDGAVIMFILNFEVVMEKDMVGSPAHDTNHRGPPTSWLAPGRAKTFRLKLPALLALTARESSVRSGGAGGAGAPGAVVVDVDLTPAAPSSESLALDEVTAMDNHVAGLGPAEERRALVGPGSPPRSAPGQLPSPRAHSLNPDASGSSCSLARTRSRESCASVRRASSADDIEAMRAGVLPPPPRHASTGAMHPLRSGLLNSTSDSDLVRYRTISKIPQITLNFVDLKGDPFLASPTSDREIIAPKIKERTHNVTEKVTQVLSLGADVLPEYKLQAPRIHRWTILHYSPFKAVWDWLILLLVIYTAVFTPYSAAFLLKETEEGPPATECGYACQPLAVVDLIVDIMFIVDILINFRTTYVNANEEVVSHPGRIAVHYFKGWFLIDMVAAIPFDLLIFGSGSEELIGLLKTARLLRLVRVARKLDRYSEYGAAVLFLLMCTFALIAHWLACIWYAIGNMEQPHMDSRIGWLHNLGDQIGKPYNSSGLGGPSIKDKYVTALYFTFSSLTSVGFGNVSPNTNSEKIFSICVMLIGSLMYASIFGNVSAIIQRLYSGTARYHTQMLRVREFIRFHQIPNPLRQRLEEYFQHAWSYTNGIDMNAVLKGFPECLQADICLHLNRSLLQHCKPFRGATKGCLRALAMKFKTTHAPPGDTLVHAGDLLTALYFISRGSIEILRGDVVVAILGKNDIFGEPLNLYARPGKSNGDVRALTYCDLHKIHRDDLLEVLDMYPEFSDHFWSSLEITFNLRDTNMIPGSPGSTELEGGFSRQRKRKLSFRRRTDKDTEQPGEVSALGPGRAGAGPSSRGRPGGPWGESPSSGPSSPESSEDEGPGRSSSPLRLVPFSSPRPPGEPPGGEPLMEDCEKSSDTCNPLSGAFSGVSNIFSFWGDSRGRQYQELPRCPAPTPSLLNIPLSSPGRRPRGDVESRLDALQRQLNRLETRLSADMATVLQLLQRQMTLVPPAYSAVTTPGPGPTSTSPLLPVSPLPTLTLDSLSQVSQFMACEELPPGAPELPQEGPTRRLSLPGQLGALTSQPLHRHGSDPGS
T2 sequence (Q06187 whole entry): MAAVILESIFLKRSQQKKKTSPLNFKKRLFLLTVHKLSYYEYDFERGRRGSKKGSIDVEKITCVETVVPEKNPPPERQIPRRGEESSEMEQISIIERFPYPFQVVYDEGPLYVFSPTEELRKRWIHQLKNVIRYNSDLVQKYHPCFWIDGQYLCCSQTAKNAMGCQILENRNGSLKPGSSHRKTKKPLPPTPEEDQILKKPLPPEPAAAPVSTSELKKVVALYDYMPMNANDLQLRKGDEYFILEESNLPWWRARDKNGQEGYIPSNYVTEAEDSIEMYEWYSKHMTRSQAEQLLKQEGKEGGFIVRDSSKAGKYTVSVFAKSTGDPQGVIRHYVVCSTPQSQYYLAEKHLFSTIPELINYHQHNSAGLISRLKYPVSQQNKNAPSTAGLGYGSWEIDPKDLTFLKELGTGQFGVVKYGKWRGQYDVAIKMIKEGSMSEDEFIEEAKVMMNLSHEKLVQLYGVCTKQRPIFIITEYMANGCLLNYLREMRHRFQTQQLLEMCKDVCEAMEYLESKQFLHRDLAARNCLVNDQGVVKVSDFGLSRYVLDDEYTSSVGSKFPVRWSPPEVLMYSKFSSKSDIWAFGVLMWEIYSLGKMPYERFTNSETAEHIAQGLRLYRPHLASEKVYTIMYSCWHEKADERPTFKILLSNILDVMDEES

| SMILES | IC50 [2] [nM] | IC50 [3] [nM] | IC50 (hERG potassium channels [1]) [nM] | IC50 (hERG potassium channels [4]) [nM] |
| --- | --- | --- | --- | --- |
| C=C(C)C(=O)NCCOc1c(N)ncnc1-c1cc(F)cc(NC(=O)c2ccc3c(c2F)OC(C)(C)C3)c1C [Example 4, N-(3-(6-amino-5-(2-(N-methacrylamido)ethoxy)pyrimidin-4-yl)-5-fluoro-2-methylphenyl)-7-fluoro-2,2-dimethyl-2,3-dihydrobenzofuran-6-carboxamide] |  |  | 15500 |  |
| C=CC(=O)N(C)CCOc1c(N)ncnc1-c1cc(F)cc(NC(=O)c2cc3c(cc2F)C(C)(C)CO3)c1C [Example 8, N-(3-(6-amino-5-(2-(N-methacrylamido)ethoxy)pyrimidin-4-yl)-5-fluoro-2-methylphenyl)-5-fluoro-3,3-dimethyl-2,3-dihydrobenzofuran-6-carboxamide] | 6.2 | 10 to 100 |  | 10000 |
| [2H]C([2H])([2H])N(CCOc1c(N)ncnc1-c1cc(F)cc(NC(=O)c2cc3c(cc2F)C2(CC3)CC2)c1C)C(=O)C=C [Example 19, N-(3-(6-amino-5-(2-(N-(methyl-d3)acrylamido)ethoxy)pyrimidin-4-yl)-5-fluoro-2-methylphenyl)-6'-fluoro-2',3'-dihydrospiro[cyclopropane-1,1'-indene]-5'-carboxamide] | 8.99 | 10 to 100 |  |  |
| C=CC(=O)N(C)CCOc1c(N)ncnc1-c1cc(F)cc(NC(=O)c2ccc3c(c2)OCC3(C)C)c1C [Example 27, N-(3-(6-amino-5-(2-(N-methacrylamido)ethoxy)pyrimidin-4-yl)-5-fluoro-2-methylphenyl)-3,3-dimethyl-2,3-dihydrobenzofuran-6-carboxamide] | 7.52 | 10 to 100 |  | 12000 |
| [2H]C([2H])(CN(C)C(=O)C=C)Oc1c(N)ncnc1-c1cc(F)cc(NC(=O)c2ccc3c(c2F)OCC3(C)C)c1C [Example 28, N-(3-(6-amino-5-(2-(N-methacrylamido)ethoxy-1,1-d2)pyrimidin-4-yl)-5-fluoro-2-methylphenyl)-7-fluoro-3,3-dimethyl-2,3-dihydrobenzofuran-6-carboxamide] | 2.12 | 10 to 100 |  | 14000 |
| C=CC(=O)N(CCF)CCOc1c(N)ncnc1-c1cc(F)cc(NC(=O)c2ccc3c(c2F)OCC3(C)C)c1C [Example 30, N-(3-(6-amino-5-(2-(N-(2-fluoroethyl)acrylamido)ethoxy)pyrimidin-4-yl)-5-fluoro-2-methylphenyl)-7-fluoro-3,3-dimethyl-2,3-dihydrobenzofuran-6-carboxamide] | 1.55 | 10 to 100 |  | 20000 |

The next lines start with results.

| IC50 [2] [nM] | IC50 [3] [nM] | SMILES | IC50 (hERG potassium channels [1]) [nM] | IC50 (hERG potassium channels [4]) [nM] |
| --- | --- | --- | --- | --- |
| 3 | 10 to 100 | C=CC(=O)N(C)CCOc1c(N)ncnc1-c1cc(F)cc(NC(=O)c2ccc3c(c2F)OCC3(C)C)c1C [Example 7, N-(3-(6-amino-5-(2-(N-methacrylamido)ethoxy)pyrimidin-4-yl)-5-fluoro-2-methylphenyl)-7-fluoro-3,3-dimethyl-2,3-dihydrobenzofuran-6-carboxamide] |  | 17000 |
| 1.73 | 10 to 100 | C=CC(=O)N(CC)CCOc1c(N)ncnc1-c1cc(F)cc(NC(=O)c2ccc3c(c2F)OCC3(C)C)c1C [Example 29, N-(3-(6-amino-5-(2-(N-ethylacrylamido)ethoxy)pyrimidin-4-yl)-5-fluoro-2-methylphenyl)-7-fluoro-3,3-dimethyl-2,3-dihydrobenzofuran-6-carboxamide] |  | 16000 |
| 0.7 | 10 to 100 | C=CC(=O)N1CCC[C@H]1COc1c(N)ncnc1-c1cc(F)cc(NC(=O)c2ccc3c(c2F)OCC3(C)C)c1C [Example 31, (S)-N-(3-(5-((1-acryloylpyrrolidin-2-yl)methoxy)-6-aminopyrimidin-4-yl)-5-fluoro-2-methylphenyl)-7-fluoro-3,3-dimethyl-2,3-dihydrobenzofuran-6-carboxamide] |  |  |
| 1.56 | 10 to 100 | C=CC(=O)N1C[C@H](F)C[C@H]1COc1c(N)ncnc1-c1cc(F)cc(NC(=O)c2ccc3c(c2F)OCC3(C)C)c1C [Example 32, N-(3-(5-(((2S,4R)-1-acryloyl-4-fluoropyrrolidin-2-yl)methoxy)-6-aminopyrimidin-4-yl)-5-fluoro-2-methylphenyl)-7-fluoro-3,3-dimethyl-2,3-dihydrobenzofuran-6-carboxamide] |  | 12000 |
